These results are taken from ChEMBL document CHEMBL1129191, “Syntheses of trans-3-substituted-CCG-IV analogs and their characterization to ionotropic glutamate receptors” (Bioorg Med Chem Lett, 1996).

In one assay the target is Glutamate NMDA receptor. In words: Compound was evaluated for the inhibition of [3H]CGS-19,755 binding to NMDA receptor from rat brain synaptic membrane.
Assay [1] addresses Glutamate receptor ionotropic, AMPA (Rattus norvegicus, UniProt P19490+P19491+P19492+P19493).
Description: Compound was evaluated for the inhibition of [3H]AMPA binding to Ionotropic glutamate receptor AMPA from rat brain synaptic membrane.

Molecules are shown by their SMILES.

As for `CN[C@H](CC(=O)O)C(=O)O` [N-METHYL-D-ASPARTIC ACID (NMDA)], the figures for the IC50 (at Glutamate NMDA receptor; in assay [1]) were 5.5 µM and more than 100 µM, respectively.

Turning to `C=C(C)[C@H]1CN[C@H](C(=O)O)[C@H]1CC(=O)O` [KAINIC ACID], the 50% inhibitory concentration (IC50) (in general, the concentration that inhibits the measured activity by half) at Glutamate NMDA receptor is more than 100 µM.

On to `C=C[C@H]1[C@H](C(=O)O)[C@@H]1[C@H](N)C(=O)O`, for which the IC50 came out at 1.2 µM at Glutamate NMDA receptor and 4 µM in assay [1].

`COC[C@H]1[C@H](C(=O)O)[C@@H]1[C@H](N)C(=O)O`: the IC50 on Glutamate NMDA receptor amounted to 50 µM; in assay [1], 4 µM.

For `CC[C@H]1[C@H](C(=O)O)[C@@H]1[C@H](N)C(=O)O`, the concentration for half-maximal inhibition (IC50) (at Glutamate NMDA receptor; in assay [1]) was 2 µM in each case.

Compound `N[C@H](C(=O)O)[C@@H]1C[C@@H]1C(=O)O` registered an IC50 on Glutamate NMDA receptor of 0.0052 µM.

Turning to `C=C1C[C@@H]([C@H](N)C(=O)O)[C@@H](C(=O)O)C1`, the figures for the IC50 (on Glutamate NMDA receptor; in assay [1]) were more than 100 µM and 7.5 µM, respectively.

Consider `N[C@H](C(=O)O)[C@@H]1[C@@H](COCc2ccccc2)[C@@H]1C(=O)O`, for which the IC50 was 21 µM on Glutamate NMDA receptor and more than 100 µM in assay [1].
